Positions of bridges follow the written chain, without caps; N, C: chain ends. Non-standard residues stand in square brackets, D forms with d. Residues, ends and D or L forms follow the SMILES beside them.
Biological target: T1, Platelet rich plasma, PRP (Canis lupus familiaris, UniProt A0A8I3N5G5+A0A8I3PMU9)
T1 sequence (A0A8I3N5G5 1-1047): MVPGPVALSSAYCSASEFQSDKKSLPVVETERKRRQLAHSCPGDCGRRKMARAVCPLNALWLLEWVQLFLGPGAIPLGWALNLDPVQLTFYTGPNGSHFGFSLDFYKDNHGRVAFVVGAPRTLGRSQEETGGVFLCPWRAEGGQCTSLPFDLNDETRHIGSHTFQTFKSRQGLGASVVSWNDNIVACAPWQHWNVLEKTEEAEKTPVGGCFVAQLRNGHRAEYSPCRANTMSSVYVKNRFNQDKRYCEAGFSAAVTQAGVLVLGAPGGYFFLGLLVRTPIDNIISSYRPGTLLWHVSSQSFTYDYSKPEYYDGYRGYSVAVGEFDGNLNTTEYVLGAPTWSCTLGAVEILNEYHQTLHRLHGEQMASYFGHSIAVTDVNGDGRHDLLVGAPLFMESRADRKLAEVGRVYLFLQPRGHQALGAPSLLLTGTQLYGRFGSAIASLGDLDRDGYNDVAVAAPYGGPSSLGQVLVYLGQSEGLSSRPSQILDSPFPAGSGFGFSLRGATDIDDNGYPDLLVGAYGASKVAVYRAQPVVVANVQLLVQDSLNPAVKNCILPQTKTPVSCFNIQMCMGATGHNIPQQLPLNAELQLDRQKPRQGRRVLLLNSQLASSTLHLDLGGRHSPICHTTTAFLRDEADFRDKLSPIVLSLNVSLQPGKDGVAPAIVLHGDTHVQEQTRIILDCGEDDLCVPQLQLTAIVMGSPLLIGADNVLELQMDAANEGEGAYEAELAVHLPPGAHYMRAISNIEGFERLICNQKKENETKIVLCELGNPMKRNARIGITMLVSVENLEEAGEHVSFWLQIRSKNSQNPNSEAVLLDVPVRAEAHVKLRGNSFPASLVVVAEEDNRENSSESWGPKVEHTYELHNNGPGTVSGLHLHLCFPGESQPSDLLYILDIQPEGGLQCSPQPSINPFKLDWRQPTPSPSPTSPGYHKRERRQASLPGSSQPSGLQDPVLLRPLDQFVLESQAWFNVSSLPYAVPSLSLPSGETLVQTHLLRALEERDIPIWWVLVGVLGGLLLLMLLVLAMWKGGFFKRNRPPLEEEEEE
T1 sequence (A0A8I3PMU9 1-919): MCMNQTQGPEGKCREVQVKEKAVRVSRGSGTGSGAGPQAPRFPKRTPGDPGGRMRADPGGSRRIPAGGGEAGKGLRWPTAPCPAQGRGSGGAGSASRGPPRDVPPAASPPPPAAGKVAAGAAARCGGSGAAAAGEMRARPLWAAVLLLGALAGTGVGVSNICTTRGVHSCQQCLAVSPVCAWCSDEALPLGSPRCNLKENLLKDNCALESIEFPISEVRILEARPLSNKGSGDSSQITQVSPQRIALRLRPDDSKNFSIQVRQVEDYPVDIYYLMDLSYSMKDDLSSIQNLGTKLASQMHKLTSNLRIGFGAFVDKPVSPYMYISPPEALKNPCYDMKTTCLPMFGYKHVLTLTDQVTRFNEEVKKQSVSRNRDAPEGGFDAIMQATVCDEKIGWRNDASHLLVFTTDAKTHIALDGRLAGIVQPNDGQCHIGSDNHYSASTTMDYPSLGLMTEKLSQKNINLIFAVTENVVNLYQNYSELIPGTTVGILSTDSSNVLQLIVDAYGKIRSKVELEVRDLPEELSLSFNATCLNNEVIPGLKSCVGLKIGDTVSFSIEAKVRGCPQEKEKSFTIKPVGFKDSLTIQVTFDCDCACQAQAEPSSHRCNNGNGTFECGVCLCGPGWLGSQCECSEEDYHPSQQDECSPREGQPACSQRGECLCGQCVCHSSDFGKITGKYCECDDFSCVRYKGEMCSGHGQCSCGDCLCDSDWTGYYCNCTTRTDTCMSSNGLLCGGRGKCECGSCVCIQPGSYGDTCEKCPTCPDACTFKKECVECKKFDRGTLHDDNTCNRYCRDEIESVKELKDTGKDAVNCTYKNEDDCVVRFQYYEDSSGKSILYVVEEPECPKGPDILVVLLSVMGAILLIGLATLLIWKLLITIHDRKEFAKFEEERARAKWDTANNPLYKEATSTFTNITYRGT
Experiment: Inhibition of platelet aggregation, PRP/ADP
Assay type: cell-based
Settings: dog platelet rich plasma, 2 μM ADP, peptide added 3 min. prior to agonist; read-out: Antiaggregatory Activity IC50, μM PRP/ADP
Experimental: Blood was collected (citrated to prevent coagulation) from, naive, adult mongrel dogs. Platelet rich plasma, PRP, was prepared by centrifugation at 150×g for 10 min. at room temperature. Washed platelets were prepared by centrifuging PRP at 800×g for 10 min. The cell pellet thus obtained was washed twice in Tyrode's buffer (pH 6.5) without Ca^2+ and resuspended in Tyrode's buffer (pH 7.4) containing 1.8 mM Ca^2+ at […]. Peptides were added 3 min. prior to the agonist in all assays of platelet aggregation. Final agonist concentrations were 0.1 unit/ml thrombin and 2 μM ADP (Sigma). Aggregation was monitored in a Chrono-Log Lumi-Aggregometer. Light transmittance 5 min. after addition of the agonist was used to calculate percent aggregation according to the formula % aggregation=[(90-CR).div.(90-10)]×100, where CR is the chart reading, 90 is the baseline, and 10 is the PRP blank reading. IC50 's were determined by plotting [% inhibition of aggregation] vs. [concentration of peptide]. Peptides were assayed at 200 μM and diluted sequentially by a factor of 2 to establish a suitable dose response curve.

Row | Molecule | IC50 [µM]
1 | CC(=O)N[C@H]1CSSC[C@@H](C(N)=O)NC(=O)[C@H](Cc2ccc(O)cc2)NC(=O)[C@H](CC(=O)O)NC(=O)CNC(=O)[C@H](CCCNC(=N)N)N(C)C1=O [Example 18, N^α -Ac-Cyclo(S,S)Cys-MeArg-Gly-Asp-Tyr-Cys-NH2] (HELM PEPTIDE1{[ac].C.[meR].G.D.Y.C.[am]}$PEPTIDE1,PEPTIDE1,2:R3-7:R3$$$V2.0) | 1.49
2 | CN[C@@H](CCCNC(=N)N)C(=O)NCC(=O)N[C@@H](CC(=O)O)C(=O)N[C@@H](CO)C(N)=O [Example 37, N^α -MeArg-Gly-Asp-Ser-NH2] (HELM PEPTIDE1{[meR].G.D.S.[am]}$$$$V2.0) | 66.3
3 | CC(=O)N[C@H]1CSSC(C)(C)[C@@H](C(N)=O)NC(=O)[C@H](CC(=O)O)NC(=O)CNC(=O)[C@H](CCCNC(=N)N)NC1=O [Example 10, N^α -Ac-Cyclo(S,S)Cys-Arg-Gly-Asp-Pen-NH2] (HELM PEPTIDE1{[ac].C.R.G.D.[Pen].[am]}$PEPTIDE1,PEPTIDE1,2:R3-6:R3$$$V2.0) | 4.12
4 | CC(=O)N[C@H]1CSSC(C)(C)[C@@H](C(N)=O)NC(=O)[C@H](CC(=O)O)NC(=O)CNC(=O)[C@H](CCCCNC(=N)N)NC1=O [Example 13, N^α -Ac-Cyclo(S,S)Cys-HArg-Gly-Asp-Pen-NH2] (HELM PEPTIDE1{[ac].C.[N=C(N)NCCCC[C@H](N[*:1])C(=O)[*:2]].G.D.[Pen].[am]}$PEPTIDE1,PEPTIDE1,2:R3-6:R3$$$V2.0) | 3.85
5 | CC(=O)N[C@H]1CSSC(C)(C)[C@@H](C(N)=O)NC(=O)[C@H](CC(=O)O)NC(=O)CNC(=O)[C@H](CCCCN)NC1=O [Example 12, N^α -Ac-Cyclo(S,S)Cys-Lys-Gly-Asp-Pen-NH2] (HELM PEPTIDE1{[ac].C.K.G.D.[Pen].[am]}$PEPTIDE1,PEPTIDE1,2:R3-6:R3$$$V2.0) | 55.3
6 | Gly-MeArg-Gly-Asp-Ser-NH2 (RGDS; N-terminal Gly-Me; C-terminal amide; printed: Arg-Gly-Asp-Ser-) [Example 39] | 12
7 | CCN=C(NCC)NCCC[C@@H]1NC(=O)[C@@H](NC(C)=O)CSSC(C)(C)[C@@H](C(N)=O)NC(=O)[C@H](CC(=O)O)NC(=O)CNC1=O [Example 24, N^α -Ac-Cyclo(S,S)Cys-(Et2)Arg-Gly-Asp-Pen-NH2] (HELM PEPTIDE1{[ac].C.[CCN=C(NCC)NCCC[C@H](N[*:1])C(=O)[*:2]].G.D.[Pen].[am]}$PEPTIDE1,PEPTIDE1,2:R3-6:R3$$$V2.0) | 81.7
8 | N^α -Ac-Cyclo(S,S)Cys-MeArg-Gly-Asp-Cys-NH2 (Ac-C[MeArg]GDC-NH2; disulfide N-5) [Example 8] | 0.91
9 | Ac-RRGDF-NH2 [Example 33, N^α -Ac-Arg-Arg-Gly-Asp-Phe-NH2] | 113
10 | CN(C=O)[C@@H](CCCNC(=N)N)C(=O)NCC(=O)N[C@@H](CC(=O)O)C(=O)N[C@@H](CO)C(N)=O [Example 38, N^α -Formyl-MeArg-Gly-Asp-Ser-NH2] (HELM PEPTIDE1{[O=C[*:2]].[meR].G.D.S.[am]}$$$$V2.0) | 6.9
11 | CC(=O)N[C@H]1CSSC(C)(C)[C@@H](C(N)=O)NC(=O)[C@H](CO)NC(=O)[C@H](CC(=O)O)NC(=O)CNC(=O)[C@H](CCCNC(=N)N)N(C)C1=O [Example 5, N^α -Ac-Cyclo(S,S)Cys-MeArg-Gly-Asp-Ser-Pen-NH2] (HELM PEPTIDE1{[ac].C.[meR].G.D.S.[Pen].[am]}$PEPTIDE1,PEPTIDE1,2:R3-7:R3$$$V2.0) | 1.3
12 | CCNC(=O)[C@H](CO)NC(=O)[C@H](CC(=O)O)NC(=O)CNC(=O)[C@H](CCCN=C(N)N)NC(C)=O [Example 15, N^α -Ac-Arg-Gly-Asp-Ser-NHEt] (HELM PEPTIDE1{[ac].R.G.D.S.[CCN[*:1]]}$$$$V2.0) | > 200
13 | CC(=O)N[C@H]1CSSC(C)(C)[C@H](C(N)=O)NC(=O)[C@H](CC(=O)O)NC(=O)CNC(=O)[C@H](CCCNC(=N)N)NC1=O [Example 11, N^α -Ac-Cyclo(S,S)Cys-Arg-Gly-Asp-D-Pen-NH2] (HELM PEPTIDE1{[ac].C.R.G.D.[CC(C)(S[*:3])[C@@H](N[*:1])C(=O)[*:2]].[am]}$PEPTIDE1,PEPTIDE1,2:R3-6:R3$$$V2.0) | 20.3
14 | CC(=O)N[C@H]1CSSC(C)(C)[C@@H](C(N)=O)NC(=O)[C@H](CC(=O)O)NC(=O)CNC(=O)[C@@H](CCCNC(=N)N)NC1=O [Example 17, N^α -Ac-Cyclo(S,S)Cys-D-Arg-Gly-Asp-Pen-NH2] (HELM PEPTIDE1{[ac].C.[dR].G.D.[Pen].[am]}$PEPTIDE1,PEPTIDE1,2:R3-6:R3$$$V2.0) | 4.1
15 | CCNC(=O)[C@H]1NC(=O)[C@H](CC(=O)O)NC(=O)CNC(=O)[C@H](CCCNC(=N)N)NC(=O)[C@@H](NC(C)=O)CSSC1(C)C [Example 16, N^α -Ac-Cyclo(S,S)Cys-Arg-Gly-Asp-Pen-NHEt] (HELM PEPTIDE1{[ac].C.R.G.D.[Pen].[CCN[*:1]]}$PEPTIDE1,PEPTIDE1,2:R3-6:R3$$$V2.0) | 9.5
16 | CC(=O)N[C@@H](CCCN=C(N)N)C(=O)NCC(=O)N[C@@H](CC(=O)O)C(=O)N[C@H](C(N)=O)C(C)C [Example 31, N^α -Ac-Arg-Gly-Asp-Val-NH2] (Ac-RGDV-NH2) | 55.5
17 | CC(=O)N[C@H]1CSSC[C@@H](C(N)=O)NC(=O)[C@H](CO)NC(=O)[C@H](CC(=O)O)NC(=O)CNC(=O)[C@H](CCCNC(=N)N)NC1=O [Example 3, N^α -Ac-Cyclo(S,S) Cys-Arg-Gly-Asp-Ser-Cys-NH2] (HELM PEPTIDE1{[ac].C.R.G.D.S.C.[am]}$PEPTIDE1,PEPTIDE1,2:R3-7:R3$$$V2.0) | 32.7
18 | CC(=O)N[C@@H](CCCN=C(N)N)C(=O)NCC(=O)N[C@@H](CC(=O)O)C(=O)NCCc1ccccc1 [Example 34, N^α -Ac-Arg-Gly-Asp-NH-CH -CH2 -C6 H5] | 75.9
19 | CC(=O)N[C@H]1CSSC(C)(C)[C@@H](C(N)=O)NC(=O)[C@H](CC(=O)O)NC(=O)CNC(=O)[C@H](CCCNC(=N)N)N(C)C1=O [Example 14, N^α -Ac-Cyclo(S,S)Cys-MeArg-Gly-Asp-Pen-NH2] (HELM PEPTIDE1{[ac].C.[meR].G.D.[Pen].[am]}$PEPTIDE1,PEPTIDE1,2:R3-6:R3$$$V2.0) | 0.26
20 | CC(=O)N[C@@H](CCCCNC(=N)N)C(=O)NCC(=O)N[C@@H](CC(=O)O)C(=O)N[C@@H](CO)C(N)=O [Example 36, Ac-HArg-Gly-Asp-Ser-NH2] (HELM PEPTIDE1{[ac].[N=C(N)NCCCC[C@H](N[*:1])C(=O)[*:2]].G.D.S.[am]}$$$$V2.0) | 68.2

From patent publication US5849690A, “Anti-aggregatory peptides” (SmithKline Beecham Corporation, priority 1992, dated 1998)
